According to patent US20260262643A1, “HERBICIDAL BENZOXAZINES” (FMC CORPORATION, priority 2022, published 2026):

Key:
barnyardgrass [1] = assay: Test C preemergence; format: in vivo, Echinochloa crusgalli
Outline: (§1)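 Seeds sown in loam soil–sand blend received a directed preemergence soil spray of test chemical in non-phytotoxic solvent with surfactant; postemergence plants (2–10 cm, one- to two-leaf stage) were sprayed with the same formulation. Greenhouse-held 10 days, then visually rated for injury versus untreated controls, 0 (no effect) to 100 (complete control).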

blackgrass [2] = assay: Test C preemergence; format: in vivo, Alopecurus myosuroides
Outline: as §1

foxtail, giant [3] = assay: Test C preemergence; format: in vivo, Setaria faberi
Description: (§2) Seeds of plant species selected from barnyardgrass (Echinochloa crusgalli), blackgrass (Alopecurus myosuroides), corn (Zea mays), foxtail, giant (giant foxtail, Setaria faberi), green foxtail (Setaria viridis), goosegrass (Eleusine indica), kochia (Bassia scoparia), oat, wild (wild oat, Avena fatua), pigweed, palmer (palmer amaranth, palmer pigweed, Amaranthus palmeri), Pigweed, Redroot (redroot pigweed, Amaranthus retroflexus), ragweed (common ragweed, Ambrosia artemisiifolia), ryegrass, Italian ([…] ryegrass, Lolium multiflorum), soybean (Glycine max), and wheat (Triticum aestivum) were planted into a blend of loam soil and sand and treated preemergence with a directed soil spray using test chemicals formulated in a non-phytotoxic solvent mixture which included a surfactant. At the same time, plants selected from these crops and weed species and also galium (catchweed bedstraw, Galium aparine) and horseweed (Erigeron canadensis) were planted in pots containing the same blend of loam soil and sand and treated with postemergence applications of test chemicals formulated in the same manner. Plants ranged in height from 2 to 10 cm and were in the one- to two-leaf stage for the postemergence treatment. Treated plants and untreated controls were maintained in a greenhouse for 10 days, after which time all treated plants were compared to untreated controls and visually evaluated for injury. Plant response ratings, summarized in Table C, are based on a 0 to 100 scale where 0 is no effect and 100 is complete control. A dash (-) response means no test result.

kochia [4] = assay: Test C preemergence; format: in vivo, Bassia scoparia
Outline: as §1

oat, wild [5] = assay: Test C preemergence; format: in vivo, Avena fatua
Outline: as §1

pigweed, palmer [6] = assay: Test C preemergence; format: in vivo, Amaranthus palmeri
Outline: as §1

ragweed [7] = assay: Test C preemergence; format: in vivo, Ambrosia artemisiifolia
Outline: as §1

ryegrass, Italian [8] = assay: Test C preemergence; format: in vivo, Lolium multiflorum
Outline: as §1

soybean [9] = assay: Test C preemergence; format: in vivo, Glycine max
Outline: as §1

wheat [10] = assay: Test C preemergence; format: in vivo, Triticum aestivum
Outline: as §1

barnyardgrass [11] = assay: Test C postemergence; format: in vivo, Echinochloa crusgalli; conditions: 10 days, 0 to 100 scale (0 no effect, 100 complete control)
Outline: as §1

blackgrass [12] = assay: Test C postemergence; format: in vivo, Alopecurus myosuroides; conditions: 10 days, 0 to 100 scale (0 no effect, 100 complete control)
Outline: as §1

corn = assay: Test C postemergence; format: in vivo, Zea mays; conditions: 10 days, 0 to 100 scale (0 no effect, 100 complete control)
Outline: as §1

foxtail, giant [13] = assay: Test C postemergence; format: in vivo, Setaria faberi; conditions: 10 days, 0 to 100 scale (0 no effect, 100 complete control)
Description: as §2

kochia [14] = assay: Test C postemergence; format: in vivo, Bassia scoparia; conditions: 10 days, 0 to 100 scale (0 no effect, 100 complete control)
Outline: as §1

oat, wild [15] = assay: Test C postemergence; format: in vivo, Avena fatua; conditions: 10 days, 0 to 100 scale (0 no effect, 100 complete control)
Outline: as §1

pigweed, palmer [16] = assay: Test C postemergence; format: in vivo, Amaranthus palmeri; conditions: 10 days, 0 to 100 scale (0 no effect, 100 complete control)
Outline: as §1

ragweed [17] = assay: Test C postemergence; format: in vivo, Ambrosia artemisiifolia; conditions: 10 days, 0 to 100 scale (0 no effect, 100 complete control)
Outline: as §1

ryegrass, Italian [18] = assay: Test C postemergence; format: in vivo, Lolium multiflorum; conditions: 10 days, 0 to 100 scale (0 no effect, 100 complete control)
Outline: as §1

soybean [19] = assay: Test C postemergence; format: in vivo, Glycine max; conditions: 10 days, 0 to 100 scale (0 no effect, 100 complete control)
Outline: as §1

wheat [20] = assay: Test C postemergence; format: in vivo, Triticum aestivum; conditions: 10 days, 0 to 100 scale (0 no effect, 100 complete control)
Outline: as §1

galium = assay: Test C postemergence; format: in vivo, Galium aparine; conditions: 10 days, 0 to 100 scale (0 no effect, 100 complete control)
Outline: as §1

horseweed = assay: Test C postemergence; format: in vivo, Erigeron canadensis; conditions: 10 days, 0 to 100 scale (0 no effect, 100 complete control)
Outline: as §1

barnyardgrass [21] = assay: Test D flooded paddy test; format: in vivo, Echinochloa crus-galli; conditions: 250 g ai/ha, applied to paddy water, visual rating after 13 to 14 days, scale 0 to 100 (0 no effect, 100 complete control)
Outline: (§3)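 Seedlings reached the 2-leaf stage, then pots were flooded to 3 cm over the soil surface. Compound was applied into the water, depth was maintained, and plants stayed in the greenhouse 13 to 14 days before visual scoring (0–100) relative to controls.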

ducksalad = assay: Test D flooded paddy test; format: in vivo, Heteranthera limosa; conditions: 250 g ai/ha, applied to paddy water, visual rating after 13 to 14 days, scale 0 to 100 (0 no effect, 100 complete control)
Outline: as §3

rice = assay: Test D flooded paddy test; format: in vivo, Oryza sativa; conditions: 250 g ai/ha, applied to paddy water, visual rating after 13 to 14 days, scale 0 to 100 (0 no effect, 100 complete control)
Outline: as §3

sedge, umbrella = assay: Test D flooded paddy test; format: in vivo, Cyperus difformis; conditions: 250 g ai/ha, applied to paddy water, visual rating after 13 to 14 days, scale 0 to 100 (0 no effect, 100 complete control)
Outline: as §3

[22] = 500 g ai/ha, preemergence, 0 to 100 scale (0 no effect, 100 complete control)
[23] = Preemergence, 125 g ai/ha, 0 to 100 scale, 0 no effect, 100 complete control

SMILES: COc1ccc(-n2cnc(C3CCC3)n2)cc1C(=O)N1C[C@H](C)Oc2c(Cl)cccc21 [Compound 323]
- Barnyardgrass plant response rating (barnyardgrass [1]; [22]): 100
- Plant response rating, Barnyardgrass (barnyardgrass [1]; [23]): 70
- Blackgrass plant response rating (blackgrass [2]; [22]): 80
- Plant response rating, Blackgrass (blackgrass [2]; [23]): 70
- Foxtail, Giant plant response rating (foxtail, giant [3]; [22]): 100
- Plant response rating, Foxtail, Giant (foxtail, giant [3]; [23]): 90
- Kochia plant response rating (kochia [4]; [22]): 100
- Plant response rating, Kochia (kochia [4]; [23]): 90
- Oat, Wild plant response rating (oat, wild [5]; [22]): 70
- Plant response rating, Oat, Wild (oat, wild [5]; [23]): 20
- Pigweed, Palmer plant response rating (pigweed, palmer [6]; [22]): 100
- Plant response rating, Pigweed, Palmer (pigweed, palmer [6]; [23]): 100
- Ragweed plant response rating (ragweed [7]; [22]): 100
- Plant response rating, Ragweed (ragweed [7]; [23]): 30
- Ryegrass, Italian plant response rating (ryegrass, Italian [8]; [22]): 80
- Plant response rating, Ryegrass, Italian (ryegrass, Italian [8]; [23]): 70
- Soybean plant response rating (soybean [9]; [22]): 80
- Plant response rating, Soybean (soybean [9]; [23]): 50
- Wheat plant response rating (wheat [10]; [22]): 80
- Plant response rating, Wheat (wheat [10]; [23]): 60
- Plant response rating, Barnyardgrass (barnyardgrass [11]; 500 g ai/ha, postemergence): 60
- Plant response rating, Barnyardgrass (barnyardgrass [11]; Postemergence, 125 g ai/ha): 30
- Plant response rating, Blackgrass (blackgrass [12]; 500 g ai/ha, postemergence): 90
- Plant response rating, Blackgrass (blackgrass [12]; Postemergence, 125 g ai/ha): 50
- Plant response rating, Corn (corn; 500 g ai/ha, postemergence): 50
- Plant response rating, Corn (corn; Postemergence, 125 g ai/ha): 10
- Plant response rating, Foxtail, Giant (foxtail, giant [13]; 500 g ai/ha, postemergence): 90
- Plant response rating, Foxtail, Giant (foxtail, giant [13]; Postemergence, 125 g ai/ha): 20
- Plant response rating, Kochia (kochia [14]; 500 g ai/ha, postemergence): 90
- Plant response rating, Kochia (kochia [14]; Postemergence, 125 g ai/ha): 90
- Plant response rating, Oat, Wild (oat, wild [15]; 500 g ai/ha, postemergence): 20
- Plant response rating, Oat, Wild (oat, wild [15]; Postemergence, 125 g ai/ha): 20
- Plant response rating, Pigweed, Palmer (pigweed, palmer [16]; 500 g ai/ha, postemergence): 100
- Plant response rating, Pigweed, Palmer (pigweed, palmer [16]; Postemergence, 125 g ai/ha): 80
- Plant response rating, Ragweed (ragweed [17]; 500 g ai/ha, postemergence): 70
- Plant response rating, Ragweed (ragweed [17]; Postemergence, 125 g ai/ha): 60
- Plant response rating, Ryegrass, Italian (ryegrass, Italian [18]; 500 g ai/ha, postemergence): 60
- Plant response rating, Ryegrass, Italian (ryegrass, Italian [18]; Postemergence, 125 g ai/ha): 10
- Plant response rating, Soybean (soybean [19]; 500 g ai/ha, postemergence): 100
- Plant response rating, Soybean (soybean [19]; Postemergence, 125 g ai/ha): 100
- Plant response rating, Wheat (wheat [20]; 500 g ai/ha, postemergence): 20
- Plant response rating, Wheat (wheat [20]; Postemergence, 125 g ai/ha): 20
- Plant response rating, Galium (galium; 500 g ai/ha, postemergence): 100
- Plant response rating, Galium (galium; Postemergence, 125 g ai/ha): 100
- Plant response rating, Horseweed (horseweed; 500 g ai/ha, postemergence): 40
- Plant response rating, Horseweed (horseweed; Postemergence, 125 g ai/ha): 30
- Plant response rating, Barnyardgrass (Flood) (barnyardgrass [21]): 30
- Plant response rating, Ducksalad (Flood) (ducksalad): 30
- Plant response rating, Rice (Flood) (rice): 0
- Plant response rating, Sedge, Umbrella (Flood) (sedge, umbrella): 70
